From the NIST ThermoML archive (doi:10.1021/je400055v)

Details: Liquid, Vibrating tube method

CCCCCCCCCCC [undecane]
mass density [kg/m3]
Details | 313.15 K | 323.1 K | 333.02 K | 342.09 K | 352.93 K | 362.91 K
1000 kPa | 726.6 | 719 | 711.3 | 703.9 | 696.5 | 688.8
2000 kPa | – | 719.8 | – | 704.8 | 697.4 | –
2001 kPa | 727.3 | – | 712.1 | – | – | 689.9
3000 kPa | – | 720.6 | 713 | – | – | 691
3001 kPa | 728 | – | – | 705.8 | 698.4 | –
4000 kPa | 728.7 | 721.4 | 713.8 | 706.7 | 699.4 | 692
5000 kPa | 729.5 | – | 714.7 | 707.6 | 700.4 | –
5001 kPa | – | 722.2 | – | – | – | 693.1
6000 kPa | – | 723 | 715.5 | 708.5 | 701.4 | –
6001 kPa | 730.2 | – | – | – | – | 694.1
7000 kPa | 731 | 723.8 | 716.4 | 709.4 | – | –
7001 kPa | – | – | – | – | 702.3 | 695.2
8000 kPa | 731.8 | 724.6 | – | 710.4 | 703.3 | 696.2
8001 kPa | – | – | 717.3 | – | – | –
9000 kPa | 732.6 | 725.5 | 718.1 | 711.2 | 704.3 | 697.2
10000 kPa | 733.4 | – | 719 | 712.2 | – | 698.2
10001 kPa | – | 726.3 | – | – | 705.2 | –
11000 kPa | 734.1 | 727.1 | 719.9 | 713.1 | 706.2 | 699.2
12000 kPa | 734.9 | 727.9 | 720.7 | 714 | 707.1 | –
12001 kPa | – | – | – | – | – | 700.2
13000 kPa | 735.7 | 728.7 | 721.5 | 714.8 | 708 | 701.1
14000 kPa | – | 729.5 | 722.4 | 715.7 | 709 | –
14001 kPa | 736.4 | – | – | – | – | 702.1
15000 kPa | 737.2 | – | 723.2 | 716.6 | 709.8 | –
15001 kPa | – | 730.3 | – | – | – | 703
16000 kPa | 737.9 | 731.1 | 724 | 717.4 | 710.7 | –
16001 kPa | – | – | – | – | – | 704
17000 kPa | 738.7 | 731.9 | 724.8 | 718.2 | 711.6 | –
17001 kPa | – | – | – | – | – | 704.9
18000 kPa | 739.4 | 732.6 | 725.6 | 719.1 | 712.5 | 705.8
19000 kPa | 740 | 733.3 | 726.3 | 719.9 | 713.3 | –
19001 kPa | – | – | – | – | – | 706.6
20000 kPa | 740.7 | 734 | 727.1 | 720.6 | 714.1 | 707.5
21000 kPa | – | 734.7 | 727.8 | 721.4 | 715 | 708.4
21001 kPa | 741.3 | – | – | – | – | –
22000 kPa | 742 | 735.4 | 728.5 | 722.2 | 715.7 | 709.2
23000 kPa | 742.6 | 736 | 729.2 | 722.9 | 716.5 | 710
23999 kPa | – | – | – | 723.6 | – | –
24000 kPa | 743.2 | 736.7 | 729.9 | – | 717.3 | 710.9
25000 kPa | 743.7 | 737.3 | 730.5 | 724.3 | 718 | 711.6
